Laboratory results as given in patent US20230390274A1 (EPIRIUM BIO INC., priority 2020, published 2023).

Target: 15-PGDH/HPGD (Homo sapiens (Human), UniProt P15428)
Test: hPGDH inhibitor screening biochemical assay
Details: 10 nM 15-PGDH/HPGD, 15 μM PGE2, 0.25 mM NAD; read-out: hPGDH: Average IC50
Method in brief: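 10 nM recombinant 15-PGDH was preincubated with compound (10-point) for 10 min at 37° C. in 50 mM Tris-HCl pH 7.5, 0.01% Tween 20. Then 15 μM PGE2 and 0.25 mM NAD+ were added for 10 min at rt. NADH fluorescence (ex/em 340/485 nm) gave % inhibition versus 1% DMSO and a four-parameter IC50.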

15-PGDH/HPGD, sequence (P15428 whole entry): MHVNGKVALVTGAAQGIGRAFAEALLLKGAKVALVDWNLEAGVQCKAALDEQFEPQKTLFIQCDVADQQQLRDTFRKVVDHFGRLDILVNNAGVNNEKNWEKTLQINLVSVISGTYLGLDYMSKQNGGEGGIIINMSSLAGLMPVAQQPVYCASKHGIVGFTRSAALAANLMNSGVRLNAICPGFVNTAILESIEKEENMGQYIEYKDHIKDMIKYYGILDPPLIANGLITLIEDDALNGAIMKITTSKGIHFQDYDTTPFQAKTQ

Row | IC50 [µM] | SMILES
1 | < 0.1 | NC(=O)[C@@H]1CCCN1C(=O)c1ccc(-n2ccc3cc(C(=O)N4CCC(F)(F)CC4)cnc32)cc1 [A-248, (S)-1-(4-(5-(4,4-difluoropiperidine-1-carbonyl)-1H-pyrrolo[2,3-b]pyridin-1-yl)benzoyl)pyrrolidine-2-carboxamide]
2 | < 0.1 | O=C(c1ccc(-n2ccc3cc(C(=O)N4CCC(F)(F)CC4)cnc32)cc1)N(CCO)CCO [A-249]
3 | < 0.1 | O=C(c1cnc2c(ccn2-c2ccc(-c3nnn[nH]3)nc2)c1)N1CCC(F)(F)CC1 [A-250, (1-(6-(1H-tetrazol-5-yl)pyridin-3-yl)-1H-pyrrolo[2,3-b]pyridin-5-yl)(4,4-difluoropiperidin-1-yl)methanone]
4 | < 0.1 | O=C(c1cnc2c(ccn2-c2cncc(-c3nnn[nH]3)c2)c1)N1CCC(F)(F)CC1 [A-251, (1-(5-(1H-tetrazol-5-yl)pyridin-3-yl)-1H-pyrrolo[2,3-b]pyridin-5-yl)(4,4-difluoropiperidin-1-yl)methanone]
5 | < 0.1 | O=C(c1cnc2c(ccn2-c2cncc(-c3noc(=O)[nH]3)c2)c1)N1CCC(F)(F)CC1 [A-252, 3-(5-(5-(4,4-difluoropiperidine-1-carbonyl)-1H-pyrrolo[2,3-b]pyridin-1-yl)pyridin-3-yl)-1,2,4-oxadiazol-5(4H)-one]
6 | < 0.1 | O=C(c1cnc2c(ccn2-c2ccc(-c3ncn[nH]3)nc2)c1)N1CCC(F)(F)CC1 [A-253]
7 | < 0.1 | O=C(c1cnc2c(ccn2-c2ccc(-c3noc(=O)[nH]3)nc2)c1)N1CCC(F)(F)CC1 [A-254, 3-(5-(5-(4,4-difluoropiperidine-1-carbonyl)-1H-pyrrolo[2,3-b]pyridin-1-yl)pyridin-2-yl)-1,2,4-oxadiazol-5(4H)-one]
8 | < 0.1 | CC1(C)NC(=O)N(c2ccc(-n3ccc4cc(C(=O)N5CCC(F)(F)CC5)cnc43)cn2)C1=O [A-255]
9 | < 0.1 | O=C(Nc1cncc(-n2ccc3cc(C(=O)N4CCC(F)(F)CC4)cnc32)c1)c1ccno1 [A-256]
10 | < 0.1 | O=C(Nc1ccno1)c1cncc(-n2ccc3cc(C(=O)N4CCC(F)(F)CC4)cnc32)c1 [A-257, 5-(5-(4,4-difluoropiperidine-1-carbonyl)-1H-pyrrolo[2,3-b]pyridin-1-yl)-N-(isoxazol-5-yl)nicotinamide]
11 | < 0.1 | O=C(Nc1ccno1)c1ccc(-n2ccc3cc(C(=O)N4CCC(F)(F)CC4)cnc32)cn1 [A-258]
12 | ≥ 1 | N#Cc1ccc(-n2ccc3nc(C(=O)N4CCC(F)CC4)ccc32)cc1 [A-259, 4-(5-(4-fluoropiperidine-1-carbonyl)-1H-pyrrolo[3,2-b]pyridin-1-yl)benzonitrile]
13 | ≥ 1 | N#Cc1ccc(-n2ccc3cc(C(=O)N4CCC(F)CC4)ncc32)cc1 [A-260, 4-(5-(4-fluoropiperidine-1-carbonyl)-1H-pyrrolo[2,3-c]pyridin-1-yl)benzonitrile]
14 | < 0.1 | O=C(NCCO)c1cccc(-n2ccc3cc(C(=O)N4CCC(F)(F)CC4)cnc32)c1 [A-263, 3-(5-(4,4-difluoropiperidine-1-carbonyl)-1H-pyrrolo[2,3-b]pyridin-1-yl)-N-(2-hydroxyethyl)benzamide]
15 | < 0.1 | O=C(O)c1ccc(-n2ccc3cc(C(=O)N4CCC(F)(F)CC4)cnc32)nc1 [A-264]
16 | < 0.1 | Cc1nc(-c2cncc(-n3ccc4cc(C(=O)N5CCC(F)(F)CC5)cnc43)c2)no1 [A-265, (4,4-difluoropiperidin-1-yl)(1-(5-(5-methyl-1,2,4-oxadiazol-3-yl)pyridin-3-yl)-1H-pyrrolo[2,3-b]pyridin-5-yl)methanone]
17 | < 0.1 | O=C(c1cnc2c(ccn2-c2cncc(N3CCOC3=O)c2)c1)N1CCC(F)(F)CC1 [A-267]
18 | < 0.1 | CCNC(=O)c1ccc(-n2ccc3cc(C(=O)N4CCC(F)(F)CC4)cnc32)nc1 [A-268, 6-(5-(4,4-difluoropiperidine-1-carbonyl)-1H-pyrrolo[2,3-b]pyridin-1-yl)-N-ethylnicotinamide]
19 | < 0.1 | NC[C@@H]1CN(c2ccc(-n3ccc4cc(C(=O)N5CCC(F)(F)CC5)cnc43)cn2)C(=O)O1 [A-269]
20 | < 0.1 | NC[C@@H]1CN(c2cncc(-n3ccc4cc(C(=O)N5CCC(F)(F)CC5)cnc43)c2)C(=O)O1 [A-270]
21 | < 0.1 | CS(=O)(=O)NCCNC(=O)c1cccc(-n2ccc3cc(C(=O)N4CCC(F)(F)CC4)cnc32)c1 [A-271, 3-(5-(4,4-difluoropiperidine-1-carbonyl)-1H-pyrrolo[2,3-b]pyridin-1-yl)-N-(2-(methylsulfonamido)ethyl)benzamide]
22 | < 0.1 | O=C(NC1CCS(=O)(=O)CC1)c1cc(Cl)cc(-n2ccc3cc(C(=O)N4CCC(F)(F)CC4)cnc32)c1 [A-272]

Row | IC50 [µM] | SMILES
23 | < 0.1 | NC(=O)c1cncc(-n2cc(Cl)c3cc(C(=O)N4CCC(F)(F)CC4)cnc32)c1 [A-273]
24 | < 0.1 | O=C(c1cnc2c(ccn2-c2cncc(NS(=O)(=O)C3CC3)c2)c1)N1CCC(F)(F)CC1 [A-274, N-(5-(5-(4,4-difluoropiperidine-1-carbonyl)-1H-pyrrolo[2,3-b]pyridin-1-yl)pyridin-3-yl)cyclopropanesulfonamide]
25 | < 0.1 | CCOC(=O)Nc1cncc(-n2ccc3cc(C(=O)N4CCC(F)(F)CC4)cnc32)c1 [A-275, ethyl (5-(5-(4,4-difluoropiperidine-1-carbonyl)-1H-pyrrolo[2,3-b]pyridin-1-yl)pyridin-3-yl)carbamate]
26 | < 0.1 | NC(=O)[C@@H]1CCCN1C(=O)c1cccc(-n2ccc3cc(C(=O)N4CCC(F)(F)CC4)cnc32)c1 [A-276, (S)-1-(3-(5-(4,4-difluoropiperidine-1-carbonyl)-1H-pyrrolo[2,3-b]pyridin-1-yl)benzoyl)pyrrolidine-2-carboxamide]
27 | < 0.1 | CC(C)(C(N)=O)c1cncc(-n2ccc3cc(C(=O)N4CCC(F)(F)CC4)cnc32)c1 [A-277, 2-(5-(5-(4,4-difluoropiperidine-1-carbonyl)-1H-pyrrolo[2,3-b]pyridin-1-yl)pyridin-3-yl)-2-methylpropanamide]
28 | < 0.1 | NS(=O)(=O)c1cccc(-n2ccc3cc(C(=O)N4CCC(F)(F)CC4)cnc32)c1 [A-279]
29 | < 0.1 | NS(=O)(=O)c1ccc(-n2ccc3cc(C(=O)N4CCC(F)(F)CC4)cnc32)cc1 [A-280]
30 | < 0.1 | O=C(c1cnc2c(ccn2-c2cccc(C(=O)N3CCS(=O)(=O)C3)c2)c1)N1CCC(F)(F)CC1 [A-281, (4,4-difluoropiperidin-1-yl)(1-(3-(1,1-dioxidothiazolidine-3-carbonyl)phenyl)-1H-pyrrolo[2,3-b]pyridin-5-yl)methanone]
31 | < 0.1 | O=C(Nc1cc(C2CC2)[nH]n1)c1cccc(-n2ccc3cc(C(=O)N4CCC(F)(F)CC4)cnc32)c1 [A-282, N-(5-cyclopropyl-1H-pyrazol-3-yl)-3-(5-(4,4-difluoropiperidine-1-carbonyl)-1H-pyrrolo[2,3-b]pyridin-1-yl)benzamide]
32 | < 0.1 | O=C(Nc1ccn(C2CC2)n1)c1cccc(-n2ccc3cc(C(=O)N4CCC(F)(F)CC4)cnc32)c1 [A-283, N-(1-cyclopropyl-1H-pyrazol-3-yl)-3-(5-(4,4-difluoropiperidine-1-carbonyl)-1H-pyrrolo[2,3-b]pyridin-1-yl)benzamide]
33 | < 0.1 | O=C(Nc1ccn(C2CC2)n1)c1cncc(-n2ccc3cc(C(=O)N4CCC(F)(F)CC4)cnc32)c1 [A-284, N-(1-cyclopropyl-1H-pyrazol-3-yl)-5-(5-(4,4-difluoropiperidine-1-carbonyl)-1H-pyrrolo[2,3-b]pyridin-1-yl)nicotinamide]
34 | < 0.1 | O=C(Nc1cc(C2CC2)[nH]n1)c1cncc(-n2ccc3cc(C(=O)N4CCC(F)(F)CC4)cnc32)c1 [A-285, N-(5-cyclopropyl-1H-pyrazol-3-yl)-5-(5-(4,4-difluoropiperidine-1-carbonyl)-1H-pyrrolo[2,3-b]pyridin-1-yl)nicotinamide]
35 | < 0.1 | N#Cc1cc(-n2ccc3cc(C(=O)N4CCC(F)(F)CC4)cnc32)cnc1O [A-286]
36 | < 0.1 | O=C(O)c1cccc(-n2ccc3cc(C(=O)N4CCC(F)(F)CC4)cnc32)c1 [A-287, 3-(5-(4,4-difluoropiperidine-1-carbonyl)-1H-pyrrolo[2,3-b]pyridin-1-yl)benzoic acid]
37 | < 0.1 | O=C(c1cnc2c(ccn2-c2cc(Cl)cc(C(=O)N3CCS(=O)(=O)CC3)c2)c1)N1CCC(F)(F)CC1 [A-288]
38 | < 0.1 | CC(C)(C#N)c1cncc(-n2ccc3cc(C(=O)N4CCC(F)(F)CC4)cnc32)c1 [A-289, 2-(5-(5-(4,4-difluoropiperidine-1-carbonyl)-1H-pyrrolo[2,3-b]pyridin-1-yl)pyridin-3-yl)-2-methylpropanenitrile]
39 | < 0.1 | O=C(c1cnc2c(ccn2-c2ccc(-c3nn[nH]n3)cc2)c1)N1CCC(F)(F)CC1 [A-290, (1-(4-(2H-tetrazol-5-yl)phenyl)-1H-pyrrolo[2,3-b]pyridin-5-yl)(4,4-difluoropiperidin-1-yl)methanone]
40 | < 0.1 | O=C(c1cnc2c(ccn2-c2cccc(-c3nn[nH]n3)c2)c1)N1CCC(F)(F)CC1 [A-291, (1-(3-(2H-tetrazol-5-yl)phenyl)-1H-pyrrolo[2,3-b]pyridin-5-yl)(4,4-difluoropiperidin-1-yl)methanone]
41 | < 0.1 | O=C(c1cnc2c(ccn2-c2cncc(-c3nc[nH]n3)c2)c1)N1CCC(F)(F)CC1 [A-292, (1-(5-(1H-1,2,4-triazol-3-yl)pyridin-3-yl)-1H-pyrrolo[2,3-b]pyridin-5-yl)(4,4-difluoropiperidin-1-yl)methanone]
42 | < 0.1 | CC(C)(O)CNC(=O)c1cc(Cl)cc(-n2ccc3cc(C(=O)N4CCC(F)(F)CC4)cnc32)c1 [A-293]
43 | < 0.1 | O=C(c1cnc2c(ccn2-c2cccc(C(=O)N3CC[S+]([O-])C3)c2)c1)N1CCC(F)(F)CC1 (centres unmarked) [A-294, (4,4-difluoropiperidin-1-yl)(1-(3-(1-oxidothiazolidine-3-carbonyl)phenyl)-1H-pyrrolo[2,3-b]pyridin-5-yl)methanone]
44 | < 0.1 | O=C(c1cnc2c(c1)c(Cl)cn2-c1cnccn1)N1CCC(F)CC1 [A-295]
